Measurements reported in PubChem BioAssay (NCI).
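1) Cells in 96-well plates. 2) Compound, 48 h, 5 concentrations. 3) Linear interpolation between surrounding doses. 4) Unreached endpoint = highest concentration. The concentration for 50% growth inhibition is given as GI50. Definition used: TGI = concentration required for complete inhibition of growth.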

How the values were obtained:
Test in all cases: NCI anticancer screen, dose series, 48 h
CCRF-CEM leukemia = test system: CCRF-CEM leukemia
MOLT-4 leukemia = test system: MOLT-4 leukemia
SNB-19 CNS = test system: SNB-19 CNS
LOX IMVI melanoma = test system: LOX IMVI melanoma
KM12 colon = test system: KM12 colon
HOP-92 NSCLC = test system: HOP-92 NSCLC
HOP-62 NSCLC = test system: HOP-62 NSCLC
HT29 colon = test system: HT29 colon
SNB-75 CNS = test system: SNB-75 CNS
786-0 renal = test system: 786-0 renal
OVCAR-4 ovarian = test system: OVCAR-4 ovarian
OVCAR-3 ovarian = test system: OVCAR-3 ovarian
NCI-H460 lung = test system: NCI-H460 lung
M14 melanoma = test system: M14 melanoma
CAKI-1 renal = test system: CAKI-1 renal
HS 578T breast = test system: HS 578T breast
TK-10 renal = test system: TK-10 renal
DU-145 prostate = test system: DU-145 prostate
BT-549 breast = test system: BT-549 breast
A498 renal = test system: A498 renal
HCT-116 colon = test system: HCT-116 colon
MDA-MB-435 = test system: MDA-MB-435
UACC-257 melanoma = test system: UACC-257 melanoma
MDA-MB-231 breast = test system: MDA-MB-231 breast
T-47D breast = test system: T-47D breast
ACHN renal = test system: ACHN renal
UACC-62 melanoma = test system: UACC-62 melanoma
NCI-H226 lung = test system: NCI-H226 lung
SN12C renal = test system: SN12C renal
SF-268 CNS = test system: SF-268 CNS
OVCAR-5 ovarian = test system: OVCAR-5 ovarian
HCC-2998 colon = test system: HCC-2998 colon
NCI-H522 lung = test system: NCI-H522 lung
IGROV1 ovarian = test system: IGROV1 ovarian
SR leukemia = test system: SR leukemia
NCI-H23 lung = test system: NCI-H23 lung
SF-295 CNS = test system: SF-295 CNS
SF-539 CNS = test system: SF-539 CNS
COLO 205 colon = test system: COLO 205 colon
NCI/ADR-RES ovarian = test system: NCI/ADR-RES ovarian
EKVX NSCLC = test system: EKVX NSCLC
RXF 393 renal = test system: RXF 393 renal
SK-MEL-5 melanoma = test system: SK-MEL-5 melanoma
PC-3 prostate = test system: PC-3 prostate
U251 CNS = test system: U251 CNS
MCF7 breast = test system: MCF7 breast
SW-620 colon = test system: SW-620 colon
SK-OV-3 ovarian = test system: SK-OV-3 ovarian
HL-60(TB) leukemia = test system: HL-60(TB) leukemia
HCT-15 colon = test system: HCT-15 colon
UO-31 renal = test system: UO-31 renal
K-562 leukemia = test system: K-562 leukemia
A549 NSCLC = test system: A549 NSCLC
SK-MEL-2 melanoma = test system: SK-MEL-2 melanoma
RPMI-8226 leukemia = test system: RPMI-8226 leukemia
OVCAR-8 ovarian = test system: OVCAR-8 ovarian
SK-MEL-28 melanoma = test system: SK-MEL-28 melanoma
MALME-3M melanoma = test system: MALME-3M melanoma

## CCCSc1ccc2nc(NC(=O)OC)[nH]c2c1
CCRF-CEM leukemia
  GI50: 0.276 µM
  TGI: > 100 µM
MOLT-4 leukemia
  GI50: 0.547 µM
  TGI: > 100 µM
SNB-19 CNS
  GI50: 0.525 µM
  TGI: > 100 µM
LOX IMVI melanoma
  GI50: 0.718 µM
  TGI: > 100 µM
KM12 colon
  GI50: 0.206 µM
  TGI: > 100 µM
HOP-92 NSCLC
  GI50: 0.712 µM
  TGI: > 100 µM
HOP-62 NSCLC
  GI50: 0.38 µM
  TGI: > 68.7 µM
HT29 colon
  GI50: 0.235 µM
SNB-75 CNS
  GI50: 0.143 µM
786-0 renal
  GI50: 0.634 µM
  TGI: > 100 µM
OVCAR-4 ovarian
  GI50: 0.792 µM
  TGI: > 100 µM
OVCAR-3 ovarian
  GI50: 0.196 µM
  TGI: 0.509 µM
NCI-H460 lung
  GI50: 0.342 µM
  TGI: > 100 µM
M14 melanoma
  GI50: 0.26 µM
CAKI-1 renal
  TGI: > 100 µM
HS 578T breast
  GI50: 0.378 µM
  TGI: > 100 µM
TK-10 renal
  GI50: > 100 µM
  TGI: > 100 µM
DU-145 prostate
  GI50: 0.336 µM
  TGI: > 71.5 µM
BT-549 breast
  GI50: 1.5 µM
  TGI: > 100 µM
A498 renal
  GI50: 0.258 µM
  TGI: 5.03 µM
HCT-116 colon
  GI50: 0.416 µM
  TGI: > 100 µM
MDA-MB-435
  GI50: 0.0348 µM
  TGI: 0.202 µM
UACC-257 melanoma
  TGI: > 100 µM
MDA-MB-231 breast
  GI50: 1.06 µM
  TGI: > 100 µM
T-47D breast
  GI50: 0.298 µM
  TGI: > 100 µM
ACHN renal
  GI50: 2.64 µM
  TGI: > 100 µM
UACC-62 melanoma
  GI50: 0.626 µM
  TGI: > 100 µM
NCI-H226 lung
  GI50: 0.456 µM
  TGI: 5.97 µM
SN12C renal
  GI50: 0.823 µM
  TGI: > 100 µM
SF-268 CNS
  GI50: 1.34 µM
  TGI: > 100 µM
OVCAR-5 ovarian
  GI50: 2.08 µM
  TGI: > 100 µM
HCC-2998 colon
  GI50: 1.01 µM
  TGI: > 33.8 µM
NCI-H522 lung
  GI50: 0.202 µM
  TGI: 0.666 µM
IGROV1 ovarian
  GI50: 1.37 µM
  TGI: > 100 µM
SR leukemia
  GI50: 0.0482 µM
NCI-H23 lung
  GI50: 0.585 µM
  TGI: > 100 µM
SF-295 CNS
  GI50: 0.29 µM
  TGI: > 32.8 µM
SF-539 CNS
  GI50: 0.323 µM
  TGI: > 24.4 µM
COLO 205 colon
  GI50: 0.241 µM
  TGI: 0.702 µM
NCI/ADR-RES ovarian
  GI50: 0.227 µM
EKVX NSCLC
  GI50: > 37 µM
  TGI: > 100 µM
RXF 393 renal
  GI50: 0.208 µM
  TGI: 0.598 µM
SK-MEL-5 melanoma
  GI50: 0.29 µM
  TGI: > 100 µM
PC-3 prostate
  GI50: 0.354 µM
  TGI: > 100 µM
U251 CNS
  GI50: 0.411 µM
  TGI: > 100 µM
MCF7 breast
  GI50: 0.38 µM
  TGI: > 100 µM
SW-620 colon
  GI50: 0.223 µM
  TGI: > 100 µM
SK-OV-3 ovarian
  GI50: 0.285 µM
  TGI: 2.91 µM
HL-60(TB) leukemia
  GI50: 0.228 µM
  TGI: 0.791 µM
HCT-15 colon
  GI50: 0.366 µM
  TGI: > 100 µM
UO-31 renal
  GI50: 0.89 µM
  TGI: > 100 µM
K-562 leukemia
  GI50: 0.0762 µM
  TGI: > 100 µM
A549 NSCLC
  GI50: 0.438 µM
  TGI: > 100 µM
SK-MEL-2 melanoma
  GI50: 0.538 µM
  TGI: > 100 µM
RPMI-8226 leukemia
  GI50: 0.378 µM
  TGI: > 100 µM
OVCAR-8 ovarian
  GI50: 0.486 µM
  TGI: > 100 µM
SK-MEL-28 melanoma
  GI50: 0.952 µM
  TGI: > 100 µM
MALME-3M melanoma
  GI50: 0.425 µM
  TGI: > 100 µM

## O=C(ON=c1c2ccccc2ccc2ccccc12)c1ccccc1
CCRF-CEM leukemia
  TGI: > 76 µM
MOLT-4 leukemia
  TGI: 16.2 µM
SNB-19 CNS
  TGI: > 84.1 µM
LOX IMVI melanoma
  TGI: > 62.1 µM
KM12 colon
  TGI: 35.6 µM
HOP-92 NSCLC
  TGI: 67.5 µM
HOP-62 NSCLC
  TGI: 59 µM
HT29 colon
  TGI: > 74.2 µM
SNB-75 CNS
  TGI: 99.7 µM
786-0 renal
  TGI: > 62.4 µM
OVCAR-4 ovarian
  TGI: > 89.1 µM
OVCAR-3 ovarian
  TGI: 62.1 µM
NCI-H460 lung
  TGI: > 80.4 µM
M14 melanoma
  TGI: 33.5 µM
CAKI-1 renal
  TGI: 79 µM
HS 578T breast
  TGI: 59.9 µM
TK-10 renal
  TGI: > 100 µM
DU-145 prostate
  TGI: > 100 µM
BT-549 breast
  TGI: 64.2 µM
A498 renal
  TGI: 50.3 µM
HCT-116 colon
  TGI: 34.1 µM
MDA-MB-435
  TGI: 42.7 µM
UACC-257 melanoma
  TGI: 93.4 µM
MDA-MB-231 breast
  TGI: > 65.2 µM
T-47D breast
  TGI: 91.4 µM
ACHN renal
  TGI: > 100 µM
UACC-62 melanoma
  TGI: 30.5 µM
NCI-H226 lung
  TGI: 57.9 µM
SN12C renal
  TGI: > 68.9 µM
SF-268 CNS
  TGI: > 86 µM
OVCAR-5 ovarian
  TGI: > 100 µM
HCC-2998 colon
  TGI: > 87.7 µM
NCI-H522 lung
  TGI: 47.3 µM
IGROV1 ovarian
  TGI: > 67.3 µM
SR leukemia
  TGI: 32.4 µM
NCI-H23 lung
  TGI: > 100 µM
SF-295 CNS
  TGI: > 73.4 µM
SF-539 CNS
  TGI: 32.8 µM
COLO 205 colon
  TGI: 35.7 µM
NCI/ADR-RES ovarian
  TGI: 56.3 µM
EKVX NSCLC
  TGI: 96.9 µM
RXF 393 renal
  TGI: 23.6 µM
SK-MEL-5 melanoma
  TGI: 29.8 µM
PC-3 prostate
  TGI: > 93 µM
U251 CNS
  TGI: 39 µM
MCF7 breast
  TGI: 45.5 µM
SW-620 colon
  TGI: 43.3 µM
SK-OV-3 ovarian
  TGI: > 91.1 µM
HL-60(TB) leukemia
  TGI: 29.5 µM
HCT-15 colon
  TGI: > 95.9 µM
UO-31 renal
  TGI: 57.4 µM
K-562 leukemia
  TGI: > 58.1 µM
A549 NSCLC
  TGI: > 92.7 µM
SK-MEL-2 melanoma
  TGI: > 58 µM
RPMI-8226 leukemia
  TGI: 73.5 µM
OVCAR-8 ovarian
  TGI: > 67.7 µM
SK-MEL-28 melanoma
  TGI: 56.3 µM
MALME-3M melanoma
  TGI: 50.5 µM
